Measured values published in ChEMBL document CHEMBL5579825, “Exploration of 1-(indolin-1-yl)-2-(thiazol-2-yl)ethan-1-one derivatives as novel anti-HBV agent with potential TLR7-agonistic effect” (Eur J Med Chem, 2024).
Active and inactive are the calls of the source. The calls are words filed in the database; no cut-off is given here.

What was measured:
Hepatitis B virus [1] = test: Antiviral activity against HBV infected in human HepG2.2.15 cells assessed as inhibition of viral DNA replication at 4 uM pre-transfected cells with viral genome followed by compound treatment for 6 days with replacement of medium containing compound on every 2 days by RT-PCR analysis relative to control; type: functional; conditions: for inhibition at 4 µM: HepG2.2.15, 144 h, time 6 day; for inhibition: time 6.0 day
[2] = Cytotoxicity against human HepG2.2.15 cells incubated for 72 hrs by CCK8 assay; type: toxicity, cell-based, HepG2 2.2.15
[3] = Selectivity index, ratio of CC50 for human HepG2.2.15 cells to IC50 for HBV infected in human HepG2.2.15 cells assessed as inhibition of viral DNA replication; type: toxicity, cell-based; conditions: HepG2.2.15 cells, read-out: Ratio CC50/IC50
[4] = Selectivity index, ratio of CC50 for human HepG2.2.15 cells to IC50 for HBsAg secretion in human HepG2.2.15 cells; type: toxicity, cell-based; conditions: for selectivity ratio: HepG2.2.15 cells, read-out: Ratio CC50/IC50
[5] = Inhibition of HBsAg secretion in human HepG2.2.15 cells treated for 6 days with replacement of medium containing compound on every 2 days by […]; type: functional, cell-based; conditions: HepG2 2.2.15
Hepatitis B virus [6] = test: Antiviral activity against HBV infected in human HepG2.2.15 cells assessed as inhibition of viral DNA replication pre-transfected cells with viral genome followed by compound treatment for 6 days with replacement of medium containing compound on every 2 days by RT-PCR analysis; type: functional, organism-based
[7] = Selectivity index, ratio of CC50 for human HepG2.A64 cells to IC50 for HBV infected in human HepG2.A64 cells assessed as inhibition of viral DNA replication; type: toxicity, cell-based; conditions: read-out: Ratio CC50/IC50
Hepatitis B virus [8] = test: Antiviral activity against HBV infected in human HepG2.A64 cells assessed as inhibition of viral DNA replication pre-transfected cells with viral genome followed by compound treatment for 3 days by RT-PCR analysis; type: functional, organism-based; conditions: HepG2.A64, 72 h
[9] = Cytotoxicity against human HepG2.A64 cells incubated for 72 hrs by CCK8 assay; type: toxicity, cell-based
Hepatitis B virus [10] = test: Antiviral activity against HBV infected in LAM/ETV-resistant human HepG2.A64 cells assessed as inhibition of viral DNA replication at 4 uM pre-transfected cells with viral genome followed by compound treatment for 72 hrs by RT-PCR analysis relative to control; type: functional
Hepatitis B virus [11] = test: Antiviral activity against HBV infected in human HepG2.2.15 cells assessed as inhibition of viral DNA replication at 4 uM pre-transfected cells with viral genome followed by compound treatment for 72 hrs by RT-PCR analysis relative to control; type: functional
Hepatitis B virus [12] = test: Antiviral activity against HBV infected in human HepG2.2.15 cells assessed as inhibition of viral DNA replication at 10 uM pre-transfected cells with viral genome followed by compound treatment for 72 hrs by RT-PCR analysis relative to control; type: functional
Hepatitis B virus [13] = test: Antiviral activity against HBV infected in LAM/ETV-resistant human HepG2.A64 cells assessed as inhibition of viral DNA replication at 10 uM pre-transfected cells with viral genome followed by compound treatment for 72 hrs by RT-PCR analysis relative to control; type: functional
Hepatitis B virus [14] = test: Antiviral activity against HBV infected in LAM/ETV-resistant human HepG2.A64 cells assessed as inhibition of viral DNA replication at 100 uM pre-transfected cells with viral genome followed by compound treatment for 72 hrs by RT-PCR analysis relative to control; type: functional
Hepatitis B virus [15] = test: Antiviral activity against HBV infected in human HepG2.2.15 cells assessed as inhibition of viral DNA replication at 100 uM pre-transfected cells with viral genome followed by compound treatment for 72 hrs by RT-PCR analysis relative to control; type: functional

With Cc1ccccc1OCc1nc(CC(=O)N2CCc3ccccc32)cs1 the inhibition at 4 µM (Hepatitis B virus [1]) was 22.6%.

Work on COc1ccccc1OCc1nc(CC(=O)N2CCc3ccccc32)cs1 yielded an inhibition at 4 µM (Hepatitis B virus [1]) of 45.5%.

With COc1ccc2c(c1)N(C(=O)Cc1csc(COc3ccccc3)n1)CC2 the inhibition at 4 µM (Hepatitis B virus [1]) was 18.6%.

With O=C(Cc1csc(COc2ccccc2C(F)(F)F)n1)N1CCc2ccccc21 the CC50 at 72 h [2] was over 50 µM, the selectivity ratio [3] was over 75.8 and the inhibition at 4 µM (Hepatitis B virus [1]) was 74.5%. For the same molecule, the “Ratio CC50/IC50” value [4] was “Not Active”, the IC50 [5] was over 50 µM and the IC50 (Hepatitis B virus [6]) was 0.66 µM.

Molecule O=C(Cc1csc(COc2cccc(Br)c2)n1)N1CCc2ccccc21 has a CC50 at 72 h [2] of over 50 µM, a selectivity ratio [3] of over 59.5 and an inhibition at 4 µM (Hepatitis B virus [1]) of 73.4%. For the same molecule, the selectivity ratio [4] was over 1.17, the IC50 [5] was 42.7 µM and the IC50 (Hepatitis B virus [6]) was 0.84 µM.

Work on O=C(Cc1csc(COc2ccccc2)n1)N1CCc2cc(Cl)ccc21 yielded a CC50 at 72 h [2] of over 50 µM, a selectivity ratio [7] of over 35.1 and an IC50 (Hepatitis B virus [8]) of 0.57 µM. The selectivity ratio [3] was over 217, the inhibition at 4 µM (Hepatitis B virus [1]) was 80% and the CC50 at 72 h [9] was over 20 µM. It also gave an inhibition at 4 µM (Hepatitis B virus [10]) of 73.7%, a selectivity ratio [4] of over 1.92 and an IC50 [5] of 26.1 µM. The IC50 (Hepatitis B virus [6]) was 0.23 µM and the inhibition at 4 µM (Hepatitis B virus [11]) was 74.5%.

COc1cccc2c1N(C(=O)Cc1csc(COc3ccccc3)n1)CC2 gave an inhibition at 4 µM (Hepatitis B virus [1]) of 41.3%.

Molecule O=C(Cc1csc(COc2ccccc2)n1)N1CCc2cc(F)ccc21 has an inhibition at 4 µM (Hepatitis B virus [1]) of 18.7%.

Molecule O=C(Cc1csc(COc2ccccc2)n1)N1CCc2ccccc21 has a CC50 at 72 h [2] of over 50 µM, a selectivity ratio [3] of over 2.91 and an inhibition at 4 µM (Hepatitis B virus [1]) of 45.4%. For the same molecule, the “Ratio CC50/IC50” value [4] was “Not Active”, the IC50 [5] was over 50 µM and the IC50 (Hepatitis B virus [6]) was 17.2 µM.

For C=C1[C@H](CO)[C@@H](O)C[C@@H]1n1cnc2c(=O)[nH]c(N)nc21 [ENTECAVIR ANHYDROUS], the inhibition at 10 µM (Hepatitis B virus [12]) was 98.1% and the inhibition at 10 µM (Hepatitis B virus [13]) was 20.1%.

Work on Cc1cccc2c1N(C(=O)Cc1csc(COc3ccccc3)n1)CC2 yielded an inhibition at 4 µM (Hepatitis B virus [1]) of 13.9%.

In the case of O=C(Cc1csc(COc2ccccc2)n1)N1CCc2ccc(Br)cc21, the inhibition at 4 µM (Hepatitis B virus [1]) is reported as 14.1%.

With O=C(Cc1csc(COc2cccc(C(F)(F)F)c2)n1)N1CCc2ccccc21 the CC50 at 72 h [2] was over 50 µM, the selectivity ratio [3] was over 14.2 and the inhibition at 4 µM (Hepatitis B virus [1]) was 50.9%. The selectivity ratio [4] was over 1.2, the IC50 [5] was 41.6 µM and the IC50 (Hepatitis B virus [6]) was 3.51 µM.

In the case of O=C(Cc1csc(COc2ccccc2Cl)n1)N1CCc2ccccc21, the inhibition at 4 µM (Hepatitis B virus [1]) is reported as 15.7%.

Molecule O=C(Cc1csc(COc2ccc(F)cc2)n1)N1CCc2ccccc21 has an inhibition at 4 µM (Hepatitis B virus [1]) of 19.1%.

Work on COc1ccc2c(c1)CCN2C(=O)Cc1csc(COc2ccccc2)n1 yielded a CC50 at 72 h [2] of over 50 µM, a selectivity ratio [3] of over 17.6 and an inhibition at 4 µM (Hepatitis B virus [1]) of 57.7%. It also gave a selectivity ratio [4] of over 1.28, an IC50 [5] of 39.1 µM and an IC50 (Hepatitis B virus [6]) of 2.84 µM.

Work on Cc1ccc(OCc2nc(CC(=O)N3CCc4ccccc43)cs2)cc1 yielded an inhibition at 4 µM (Hepatitis B virus [1]) of 39.4%.

With O=C(Cc1csc(COc2cccc(Cl)c2)n1)N1CCc2ccccc21 the inhibition (Hepatitis B virus [1]) was “inactive”.

For Cc1ccc2c(c1)N(C(=O)Cc1csc(COc3ccccc3)n1)CC2, the inhibition (Hepatitis B virus [1]) was “inactive”.

For COc1cccc(OCc2nc(CC(=O)N3CCc4ccccc43)cs2)c1, the inhibition at 4 µM (Hepatitis B virus [1]) was 8.33%.

In the case of O=C(Cc1csc(COc2ccccc2)n1)N1CCc2cccc(Cl)c21, the CC50 at 72 h [2] is reported as over 50 µM, the selectivity ratio [3] is reported as over 49.5 and the inhibition at 4 µM (Hepatitis B virus [1]) is reported as 65.9%. For the same molecule, the “Ratio CC50/IC50” value [4] was “Not Active”, the IC50 [5] was over 50 µM and the IC50 (Hepatitis B virus [6]) was 1.01 µM.

In the case of Cc1ccc2c(c1)CCN2C(=O)Cc1csc(COc2ccccc2)n1, the inhibition at 4 µM (Hepatitis B virus [1]) is reported as 40.5%.

In the case of O=C(Cc1csc(COc2ccccc2)n1)N1CCc2c(Br)cccc21, the inhibition (Hepatitis B virus [1]) is reported as “inactive”.

For O=C(Cc1csc(COc2ccccc2)n1)N1CCc2ccc(F)cc21, the inhibition at 4 µM (Hepatitis B virus [1]) was 34.2%.

O=C(Cc1csc(COc2ccccc2F)n1)N1CCc2cc(Br)ccc21 gave a CC50 at 72 h [2] of over 50 µM, a selectivity ratio [3] of over 116 and an inhibition at 4 µM (Hepatitis B virus [1]) of 72.6%. The selectivity ratio [4] was over 0.89, the IC50 [5] was 44.7 µM and the IC50 (Hepatitis B virus [6]) was 0.43 µM.

With O=C(Cc1csc(COc2ccccc2)n1)N1CCc2c(F)cccc21 the CC50 at 72 h [2] was over 50 µM, the selectivity ratio [3] was over 12.8 and the inhibition at 4 µM (Hepatitis B virus [1]) was 52.2%. For the same molecule, the selectivity ratio [4] was over 1.64, the IC50 [5] was 30.5 µM and the IC50 (Hepatitis B virus [6]) was 3.9 µM.

In the case of O=C(Cc1csc(COc2ccc(C(F)(F)F)cc2)n1)N1CCc2ccccc21, the CC50 at 72 h [2] is reported as over 50 µM, the selectivity ratio [3] is reported as over 76.9 and the inhibition at 4 µM (Hepatitis B virus [1]) is reported as 70.2%. For the same molecule, the selectivity ratio [4] was over 1.27, the IC50 [5] was 39.5 µM and the IC50 (Hepatitis B virus [6]) was 0.65 µM.

Work on O=C(Cc1csc(COc2ccccc2)n1)N1CCc2cccc(Br)c21 yielded a CC50 at 72 h [2] of over 50 µM, a selectivity ratio [3] of over 16.3 and an inhibition at 4 µM (Hepatitis B virus [1]) of 51.6%. The “Ratio CC50/IC50” value [4] was “Not Active”, the IC50 [5] was over 50 µM and the IC50 (Hepatitis B virus [6]) was 3.07 µM.

Cc1cccc(OCc2nc(CC(=O)N3CCc4ccccc43)cs2)c1 gave a CC50 at 72 h [2] of over 50 µM, a selectivity ratio [3] of over 67.6 and an inhibition at 4 µM (Hepatitis B virus [1]) of 65.4%. It also gave a selectivity ratio [4] of over 2.45, an IC50 [5] of 20.4 µM and an IC50 (Hepatitis B virus [6]) of 0.74 µM.

With O=C(Cc1csc(COc2ccccc2)n1)N1CCc2cccc(F)c21 the inhibition at 4 µM (Hepatitis B virus [1]) was 34.6%.

With O=C(Cc1csc(COc2ccccc2)n1)N1CCc2c(Cl)cccc21 the inhibition at 4 µM (Hepatitis B virus [1]) was 33.9%.

For O=C(Cc1csc(COc2ccccc2Br)n1)N1CCc2ccccc21, the inhibition (Hepatitis B virus [1]) was “inactive”.

In the case of O=C(Cc1csc(COc2cccc(F)c2)n1)N1CCc2ccccc21, the inhibition (Hepatitis B virus [1]) is reported as “inactive”.

O=C(Cc1csc(COc2ccc(Br)cc2)n1)N1CCc2ccccc21 showed an inhibition at 4 µM (Hepatitis B virus [1]) of 25.7%.

For O=C(Cc1csc(COc2ccccc2)n1)N1CCc2cc(Br)ccc21, the CC50 at 72 h [2] was over 50 µM, the selectivity ratio [3] was over 132 and the inhibition at 4 µM (Hepatitis B virus [1]) was 94%. The “Ratio CC50/IC50” value [4] was “Not Active”, the IC50 [5] was over 50 µM and the IC50 (Hepatitis B virus [6]) was 0.38 µM.

Molecule COc1ccc(OCc2nc(CC(=O)N3CCc4ccccc43)cs2)cc1 has an inhibition at 4 µM (Hepatitis B virus [1]) of 34.5%.

Work on Nc1ccn([C@@H]2CS[C@H](CO)O2)c(=O)n1 [LAMIVUDINE] yielded a CC50 at 72 h [2] of over 100 µM, an IC50 (Hepatitis B virus [8]) of over 100 µM and a selectivity ratio [3] of over 1000. It also gave an inhibition at 100 µM (Hepatitis B virus [14]) of 17.8%, an inhibition at 4 µM (Hepatitis B virus [1]) of 90.8% and an inhibition at 100 µM (Hepatitis B virus [15]) of 92.3%. For the same molecule, the CC50 at 72 h [9] was over 100 µM, the “Ratio CC50/IC50” value [4] was “Not Active” and the IC50 [5] was over 100 µM. It also gave an IC50 (Hepatitis B virus [6]) of under 0.1 µM.

For O=C(Cc1csc(COc2ccccc2)n1)N1CCc2ccc(Cl)cc21, the CC50 at 72 h [2] was over 50 µM, the selectivity ratio [3] was over 80.7 and the inhibition at 4 µM (Hepatitis B virus [1]) was 59.6%. It also gave a selectivity ratio [4] of over 1.19, an IC50 [5] of 42.2 µM and an IC50 (Hepatitis B virus [6]) of 0.62 µM.

COc1cccc2c1CCN2C(=O)Cc1csc(COc2ccccc2)n1 showed an inhibition at 4 µM (Hepatitis B virus [1]) of 4.26%.
